Experimental data reported in the NIST ThermoML archive (doi:10.1016/j.jct.2015.08.014).
Numbers after ± are expanded uncertainties.

Assay: xn = mol fraction of the nth substance listed
Conditions: 100 kPa, Liquid; for electrical conductivity: Alternating current cell with electrodes; for mass density: Vibrating tube method; for viscosity: Capillary tube (Ostwald / Ubbelohde) method

CCCC[N+]1(C)CCCC1.N#CN=C=[N-] [1-butyl-1-methylpyrrolidinium dicyanamide] + O=C1CCCO1
electrical conductivity (273.15 K, Frequency=0.00892857 MHz, x1 = 0.9013): 0.563 ± 0.006 S/m | electrical conductivity (273.15 K, Frequency=0.00892857 MHz, x1 = 1): 0.523 ± 0.005 S/m | electrical conductivity (273.15 K, Frequency=0.00961538 MHz, x1 = 0.0463): 0.978 ± 0.016 S/m | electrical conductivity (273.15 K, Frequency=0.00961538 MHz, x1 = 0.0987): 1.43 ± 0.017 S/m | electrical conductivity (273.15 K, Frequency=0.00961538 MHz, x1 = 0.1449): 1.57 ± 0.016 S/m | electrical conductivity (273.15 K, Frequency=0.00961538 MHz, x1 = 0.1859): 1.635 ± 0.016 S/m | electrical conductivity (273.15 K, Frequency=0.00961538 MHz, x1 = 0.2493): 1.517 ± 0.015 S/m | electrical conductivity (273.15 K, Frequency=0.00961538 MHz, x1 = 0.3029): 1.42 ± 0.015 S/m | electrical conductivity (273.15 K, Frequency=0.00961538 MHz, x1 = 0.3845): 1.25 ± 0.013 S/m | electrical conductivity (273.15 K, Frequency=0.00961538 MHz, x1 = 0.4985): 1.03 ± 0.011 S/m | electrical conductivity (273.15 K, Frequency=0.00961538 MHz, x1 = 0.6954): 0.742 ± 0.008 S/m | electrical conductivity (273.15 K, Frequency=0.00961538 MHz, x1 = 0.9013): 0.563 ± 0.006 S/m | electrical conductivity (273.15 K, Frequency=0.00961538 MHz, x1 = 1): 0.523 ± 0.005 S/m | electrical conductivity (273.15 K, Frequency=0.01 MHz, x1 = 0.0463): 0.978 ± 0.016 S/m | electrical conductivity (273.15 K, Frequency=0.01 MHz, x1 = 0.0987): 1.43 ± 0.017 S/m | electrical conductivity (273.15 K, Frequency=0.01 MHz, x1 = 0.1449): 1.57 ± 0.016 S/m | electrical conductivity (273.15 K, Frequency=0.01 MHz, x1 = 0.1859): 1.635 ± 0.016 S/m | electrical conductivity (273.15 K, Frequency=0.01 MHz, x1 = 0.2493): 1.517 ± 0.015 S/m | electrical conductivity (273.15 K, Frequency=0.01 MHz, x1 = 0.3029): 1.42 ± 0.015 S/m | electrical conductivity (273.15 K, Frequency=0.01 MHz, x1 = 0.3845): 1.25 ± 0.013 S/m | electrical conductivity (273.15 K, Frequency=0.01 MHz, x1 = 0.4985): 1.03 ± 0.011 S/m | electrical conductivity (273.15 K, Frequency=0.01 MHz, x1 = 0.6954): 0.742 ± 0.008 S/m | electrical conductivity (273.15 K, Frequency=0.01 MHz, x1 = 0.9013): 0.563 ± 0.006 S/m | electrical conductivity (273.15 K, Frequency=0.01 MHz, x1 = 1): 0.523 ± 0.005 S/m | mass density (273.15 K, x1 = 0.0987): 1124.75 ± 9 kg/m3 | mass density (273.15 K, x1 = 0.1859): 1107.12 ± 8.9 kg/m3 | mass density (273.15 K, x1 = 0.3029): 1087.92 ± 8.7 kg/m3 | mass density (273.15 K, x1 = 0.4985): 1063.96 ± 8.5 kg/m3 | mass density (273.15 K, x1 = 0.6954): 1046.52 ± 8.4 kg/m3 | mass density (273.15 K, x1 = 0.9013): 1032.97 ± 8.3 kg/m3 | mass density (273.15 K, x1 = 1): 1027.69 ± 8.3 kg/m3 | electrical conductivity (283.15 K, x1 = 0.0463): 1.17 ± 0.02 S/m | electrical conductivity (283.15 K, x1 = 0.0987): 1.73 ± 0.021 S/m | electrical conductivity (283.15 K, x1 = 0.1449): 1.93 ± 0.02 S/m | electrical conductivity (283.15 K, x1 = 0.1859): 2.028 ± 0.02 S/m | electrical conductivity (283.15 K, x1 = 0.2493): 1.926 ± 0.019 S/m | electrical conductivity (283.15 K, x1 = 0.3029): 1.84 ± 0.019 S/m | electrical conductivity (283.15 K, x1 = 0.3845): 1.66 ± 0.017 S/m | electrical conductivity (283.15 K, x1 = 0.4985): 1.407 ± 0.014 S/m | electrical conductivity (283.15 K, x1 = 0.6954): 1.07 ± 0.011 S/m | electrical conductivity (283.15 K, x1 = 0.9013): 0.849 ± 0.009 S/m | electrical conductivity (283.15 K, x1 = 1): 0.786 ± 0.008 S/m | viscosity (283.15 K, x1 = 0.0987): 3.75 ± 0.08 mPa·s | viscosity (283.15 K, x1 = 0.1859): 5.58 ± 0.13 mPa·s | viscosity (283.15 K, x1 = 0.3029): 8.99 ± 0.2 mPa·s | viscosity (283.15 K, x1 = 0.4985): 17.71 ± 0.39 mPa·s | viscosity (283.15 K, x1 = 0.6954): 30.79 ± 0.69 mPa·s | viscosity (283.15 K, x1 = 0.9013): 49.24 ± 1.1 mPa·s | viscosity (283.15 K, x1 = 1): 59.6 ± 1.4 mPa·s | electrical conductivity (283.15 K, Frequency=0.0005 MHz, x1 = 0.0463): 1.16 ± 0.02 S/m | electrical conductivity (283.15 K, Frequency=0.0005 MHz, x1 = 0.0987): 1.73 ± 0.021 S/m | electrical conductivity (283.15 K, Frequency=0.0005 MHz, x1 = 0.1449): 1.92 ± 0.02 S/m | electrical conductivity (283.15 K, Frequency=0.0005 MHz, x1 = 0.1859): 2.018 ± 0.02 S/m | electrical conductivity (283.15 K, Frequency=0.0005 MHz, x1 = 0.2493): 1.921 ± 0.019 S/m | electrical conductivity (283.15 K, Frequency=0.0005 MHz, x1 = 0.3029): 1.84 ± 0.019 S/m | electrical conductivity (283.15 K, Frequency=0.0005 MHz, x1 = 0.3845): 1.65 ± 0.017 S/m | electrical conductivity (283.15 K, Frequency=0.0005 MHz, x1 = 0.4985): 1.407 ± 0.014 S/m | electrical conductivity (283.15 K, Frequency=0.0005 MHz, x1 = 0.6954): 1.07 ± 0.01 S/m | electrical conductivity (283.15 K, Frequency=0.0005 MHz, x1 = 0.9013): 0.849 ± 0.009 S/m | electrical conductivity (283.15 K, Frequency=0.0005 MHz, x1 = 1): 0.786 ± 0.008 S/m | electrical conductivity (283.15 K, Frequency=0.001 MHz, x1 = 0.0463): 1.16 ± 0.02 S/m | electrical conductivity (283.15 K, Frequency=0.001 MHz, x1 = 0.0987): 1.73 ± 0.021 S/m | electrical conductivity (283.15 K, Frequency=0.001 MHz, x1 = 0.1449): 1.92 ± 0.02 S/m | electrical conductivity (283.15 K, Frequency=0.001 MHz, x1 = 0.1859): 2.027 ± 0.02 S/m | electrical conductivity (283.15 K, Frequency=0.001 MHz, x1 = 0.2493): 1.923 ± 0.019 S/m | electrical conductivity (283.15 K, Frequency=0.001 MHz, x1 = 0.3029): 1.84 ± 0.019 S/m | electrical conductivity (283.15 K, Frequency=0.001 MHz, x1 = 0.3845): 1.65 ± 0.017 S/m | electrical conductivity (283.15 K, Frequency=0.001 MHz, x1 = 0.4985): 1.407 ± 0.014 S/m | electrical conductivity (283.15 K, Frequency=0.001 MHz, x1 = 0.6954): 1.07 ± 0.01 S/m | electrical conductivity (283.15 K, Frequency=0.001 MHz, x1 = 0.9013): 0.849 ± 0.009 S/m | electrical conductivity (283.15 K, Frequency=0.001 MHz, x1 = 1): 0.786 ± 0.008 S/m | electrical conductivity (283.15 K, Frequency=0.0015 MHz, x1 = 0.0463): 1.17 ± 0.02 S/m | electrical conductivity (283.15 K, Frequency=0.0015 MHz, x1 = 0.0987): 1.73 ± 0.021 S/m | electrical conductivity (283.15 K, Frequency=0.0015 MHz, x1 = 0.1449): 1.92 ± 0.02 S/m | electrical conductivity (283.15 K, Frequency=0.0015 MHz, x1 = 0.1859): 2.027 ± 0.02 S/m | electrical conductivity (283.15 K, Frequency=0.0015 MHz, x1 = 0.2493): 1.924 ± 0.019 S/m | electrical conductivity (283.15 K, Frequency=0.0015 MHz, x1 = 0.3029): 1.84 ± 0.019 S/m | electrical conductivity (283.15 K, Frequency=0.0015 MHz, x1 = 0.3845): 1.66 ± 0.017 S/m | electrical conductivity (283.15 K, Frequency=0.0015 MHz, x1 = 0.4985): 1.407 ± 0.014 S/m | electrical conductivity (283.15 K, Frequency=0.0015 MHz, x1 = 0.6954): 1.07 ± 0.01 S/m | electrical conductivity (283.15 K, Frequency=0.0015 MHz, x1 = 0.9013): 0.849 ± 0.009 S/m | electrical conductivity (283.15 K, Frequency=0.0015 MHz, x1 = 1): 0.786 ± 0.008 S/m | electrical conductivity (283.15 K, Frequency=0.002 MHz, x1 = 0.0463): 1.17 ± 0.02 S/m | electrical conductivity (283.15 K, Frequency=0.002 MHz, x1 = 0.0987): 1.73 ± 0.021 S/m | electrical conductivity (283.15 K, Frequency=0.002 MHz, x1 = 0.1449): 1.92 ± 0.02 S/m | electrical conductivity (283.15 K, Frequency=0.002 MHz, x1 = 0.1859): 2.027 ± 0.02 S/m | electrical conductivity (283.15 K, Frequency=0.002 MHz, x1 = 0.2493): 1.925 ± 0.019 S/m | electrical conductivity (283.15 K, Frequency=0.002 MHz, x1 = 0.3029): 1.84 ± 0.019 S/m | electrical conductivity (283.15 K, Frequency=0.002 MHz, x1 = 0.3845): 1.66 ± 0.017 S/m | electrical conductivity (283.15 K, Frequency=0.002 MHz, x1 = 0.4985): 1.407 ± 0.014 S/m | electrical conductivity (283.15 K, Frequency=0.002 MHz, x1 = 0.6954): 1.07 ± 0.01 S/m | electrical conductivity (283.15 K, Frequency=0.002 MHz, x1 = 0.9013): 0.849 ± 0.009 S/m | electrical conductivity (283.15 K, Frequency=0.002 MHz, x1 = 1): 0.786 ± 0.008 S/m | electrical conductivity (283.15 K, Frequency=0.0025 MHz, x1 = 0.0463): 1.17 ± 0.02 S/m | electrical conductivity (283.15 K, Frequency=0.0025 MHz, x1 = 0.0987): 1.73 ± 0.021 S/m | electrical conductivity (283.15 K, Frequency=0.0025 MHz, x1 = 0.1449): 1.93 ± 0.02 S/m | electrical conductivity (283.15 K, Frequency=0.0025 MHz, x1 = 0.1859): 2.028 ± 0.02 S/m | electrical conductivity (283.15 K, Frequency=0.0025 MHz, x1 = 0.2493): 1.925 ± 0.019 S/m | electrical conductivity (283.15 K, Frequency=0.0025 MHz, x1 = 0.3029): 1.84 ± 0.019 S/m | electrical conductivity (283.15 K, Frequency=0.0025 MHz, x1 = 0.3845): 1.66 ± 0.017 S/m | electrical conductivity (283.15 K, Frequency=0.0025 MHz, x1 = 0.4985): 1.407 ± 0.014 S/m | electrical conductivity (283.15 K, Frequency=0.0025 MHz, x1 = 0.6954): 1.07 ± 0.01 S/m | electrical conductivity (283.15 K, Frequency=0.0025 MHz, x1 = 0.9013): 0.849 ± 0.009 S/m | electrical conductivity (283.15 K, Frequency=0.0025 MHz, x1 = 1): 0.786 ± 0.008 S/m | electrical conductivity (283.15 K, Frequency=0.003 MHz, x1 = 0.0463): 1.17 ± 0.02 S/m | electrical conductivity (283.15 K, Frequency=0.003 MHz, x1 = 0.0987): 1.73 ± 0.021 S/m | electrical conductivity (283.15 K, Frequency=0.003 MHz, x1 = 0.1449): 1.93 ± 0.02 S/m
